Test results published in the OPERA property sets (Mansouri et al. 2018).

settings: not given

In order of rising melting point:
1. CCC(C)CC  -163 °C
2. C1COC1  -97 °C
3. CC1(C)CC=CCC1  -74.4 °C
4. Cc1cccs1  -63.4 °C
5. CC(C)NC(C)C  -61 °C
6. CC(C)CCCCCCCOC(=O)c1ccccc1C(=O)OCCCCCCCC(C)C  -45.6 °C
7. O=C1CCCO1  -43.3 °C
8. O=C(OC(=O)C(F)(F)C(F)(F)C(F)(F)F)C(F)(F)C(F)(F)C(F)(F)F  -43 °C
9. CCc1cccc([N+](=O)[O-])c1  -37.9 °C
10. ClCCCCCl  -37.3 °C
11. Cc1ccccc1Br  -27.8 °C
12. Cl[C@H]1CC[C@@H](Cl)CC1  18 °C
13. OC1CCCCCCC1  25.1 °C
14. Cc1ccc(Cl)cc1N  26 °C
15. O=[N+]([O-])c1ccccc1-c1ccccc1  37.2 °C
16. c1ccc(Nc2cccc3ccccc23)cc1  62 °C
17. CCCCCCCCCCCCCCCC(=O)OC(=O)CCCCCCCCCCCCCCC  64 °C
18. CCC1(C)CC(=O)NC1=O (stereo not given)  65 °C
19. CC#CC#CC  67.8 °C
20. COc1cc(O)c(C=O)c(OC)c1  70 °C
21. Nc1ccc(Cl)c(Cl)c1Cl  73 °C
22. Oc1ccc(Nc2ccccc2)cc1  73 °C
23. Cc1cc(N)ccc1Br  81 °C
24. CCc1ssc(=O)c1-c1ccccc1  82 °C
25. COc1ccc(C(=O)CC(=O)c2ccc(C(C)(C)C)cc2)cc1  83.5 °C
26. CC(=O)OC[C@H]1O[C@@](COC(C)=O)(O[C@H]2O[C@H](COC(C)=O)[C@@H](OC(C)=O)[C@H](OC(C)=O)[C@H]2OC(C)=O)[C@@H](OC(C)=O)[C@@H]1OC(C)=O  86.5 °C
27. O=c1n(CCCN2CCN(c3cccc(Cl)c3)CC2)nc2ccccn12  87 °C
28. CC(c1ccccc1)(c1ccccc1)c1ccccc1  95 °C
29. CN(CCCN1c2ccccc2CCc2ccccc21)CC(=O)c1ccc(Cl)cc1  105 °C
30. COc1cccc(OC)c1C#N  119 °C
31. OC[C@]1(O)OC[C@@H](O)[C@H](O)[C@@H]1O  134 °C
32. Cc1cc(O)cc(O)c1C  136 °C
33. Cc1cc(S(=O)(=O)c2ccccc2)ccc1NS(=O)(=O)C(F)(F)F  143 °C
34. O[Si](c1ccccc1)(c1ccccc1)c1ccccc1  155 °C
35. CC(C)(C)[C@@H](O)[C@@H](Cc1ccc(Cl)cc1)n1cncn1 (single isomer, unassigned)  166 °C
36. CC(C)C1(Cc2ccco2)C(=O)NC(=O)NC1=O  169 °C
37. O=C1CSC(=S)N1  170 °C
38. COc1cc(C(=O)O)cc(OC)c1OC  172 °C
39. CN(C)c1ccccn1  182 °C
40. COc1cc(OC)cc(C(=O)O)c1  186 °C
41. Cc1cc(C)c(O)c(C(=O)CC2CC(=O)NC(=O)C2)c1  201 °C
42. O=C(Nc1ccc2nn(C3CCCCC3)nc2c1)c1ccccc1  212 °C
43. Cc1c(Cl)c(Cl)c(Cl)c(Cl)c1Cl  225 °C
44. CN1CCN(CCCN2c3ccccc3Sc3ccc(Cl)cc32)CC1  228 °C
45. O=C(c1ccc(F)cc1)C1CCN(CCn2c(=O)[nH]c3ccccc3c2=O)CC1  231 °C
46. O=C(O)c1cc(Cl)c(O)c(Cl)c1  265 °C
47. c1cc2ccc3ccc4ccc5ccc6ccc1c1c2c3c4c5c61  437 °C

With `CCCCCC[Si](Cl)(CCCCCC)CCCCCC` the ready biodegradability was “not readily biodegradable”.
In the case of `O=C1CCCO1`, the ready biodegradability is reported as “readily biodegradable”.
In the case of `CC(C)CCCCCCCOC(=O)c1ccccc1C(=O)OCCCCCCCC(C)C`, the ready biodegradability is reported as “readily biodegradable”.
In the case of `c1ccc(Nc2cccc3ccccc23)cc1`, the ready biodegradability is reported as “not readily biodegradable”.
With `ClCCCCCl` the ready biodegradability was “not readily biodegradable”.

In order of falling boiling point:
1. c1cc2ccc3ccc4ccc5ccc6ccc1c1c2c3c4c5c61  525 °C
2. Oc1ccc(Nc2ccccc2)cc1  330 °C
3. O=[N+]([O-])c1ccccc1-c1ccccc1  320 °C
4. COc1cccc(OC)c1C#N  310 °C
5. Cc1c(Cl)c(Cl)c(Cl)c(Cl)c1Cl  301 °C
6. Nc1ccc(Cl)c(Cl)c1Cl  292 °C
7. Cc1cc(O)cc(O)c1C  284 °C
8. CCCCCCCCCCC#N  253 °C
9. CCOC(=O)CC(=O)CC(=O)OCC  250 °C
10. CCc1ccc2ccccc2n1  246 °C
11. S=C=NCc1ccccc1  243 °C
12. CCc1cccc([N+](=O)[O-])c1  242 °C
13. Cc1cc(N)ccc1Br  240 °C
14. Cc1ccc(Cl)cc1N  239 °C
15. O=C1CCCO1  204 °C
16. CN(C)c1ccccn1  196 °C
17. Cc1ccccc1Br  182 °C
18. COP(=O)(O)OC  174 °C
19. ClCCCCCl  161 °C
20. C=C(Cl)C(Cl)CCl (stereo not given)  155 °C
21. CC(C)CC(C)C(C)(C)C (stereo not given)  148 °C
22. CC#CC#CC  130 °C
23. CC1(C)CC=CCC1  117 °C
24. COC(=O)C1CC1  115 °C
25. Cc1cccs1  113 °C
26. O=C(OC(=O)C(F)(F)C(F)(F)C(F)(F)F)C(F)(F)C(F)(F)C(F)(F)F  106 °C
27. FC(F)(F)C1(F)C(F)(F)C(F)(F)C(F)(C(F)(F)F)C(F)(F)C1(F)F (stereo not given)  100 °C
28. CC(C)NC(C)C  83.9 °C
29. C=CCOC=O  83.6 °C
30. CCC(C)CC  63.2 °C
31. C1COC1  47.6 °C
32. NCC(F)(F)F  37.5 °C

In order of rising log10 vapour pressure (mmHg):
1. c1cc2ccc3ccc4ccc5ccc6ccc1c1c2c3c4c5c61  -11.7
2. CC(C)(C)[C@@H](O)[C@@H](Cc1ccc(Cl)cc1)n1cncn1 (single isomer, unassigned)  -8.12
3. COc1cc(OC)cc(C(=O)O)c1  -6.86
4. CC(C)CCCCCCCOC(=O)c1ccccc1C(=O)OCCCCCCCC(C)C  -6.28
5. S=C=NCc1ccccc1  -1.81
6. O=C1CCCO1  -0.347
7. Cc1ccccc1Br  0.0186
8. C=C(Cl)C(Cl)CCl (stereo not given)  0.274
9. ClCCCCCl  0.616
10. Cc1cccs1  1.4
11. CC(C)NC(C)C  1.9
12. CCC(C)CC  2.28
13. C1COC1  2.51

In order of rising log10 Koc (L/kg):
1. Cc1cc(N)ccc1Br  2.26
2. Nc1ccc(Cl)c(Cl)c1Cl  2.6
3. CC(C)(C)[C@@H](O)[C@@H](Cc1ccc(Cl)cc1)n1cncn1 (single isomer, unassigned)  2.7
4. Cc1cc(S(=O)(=O)c2ccccc2)ccc1NS(=O)(=O)C(F)(F)F  3.08

In order of rising log10 Henry constant (atm·m³/mol):
1. ClCCCCCl  -3.31
2. Cc1c(Cl)c(Cl)c(Cl)c(Cl)c1Cl  -3.11
3. Cc1cccs1  -2.62

For `c1cc2ccc3ccc4ccc5ccc6ccc1c1c2c3c4c5c61`, the log10 biodegradation half-life (days) was 2.87.

same assay, conditions: fish

In order of rising log10 BCF:
1. NCCNCCN  0.65
2. CC(C)CCCCCCCOC(=O)c1ccccc1C(=O)OCCCCCCCC(C)C  1.16
3. CC(C)OC(=O)C(C(=O)OC(C)C)=C1SCCS1  1.57
4. Nc1ccc(Cl)c(Cl)c1Cl  2
5. c1ccc(Nc2cccc3ccccc23)cc1  3.23
6. Cc1c(Cl)c(Cl)c(Cl)c(Cl)c1Cl  3.83
7. Clc1cc(Cl)c2cc(Cl)ccc2c1  4.43

In order of falling log10 biotransformation half-life (days):
1. O[Si](c1ccccc1)(c1ccccc1)c1ccccc1  0.07
2. c1ccc2cc3c(cc2c1)-c1cccc2cccc-3c12  -0.06
3. Nc1ccc(Cl)c(Cl)c1Cl  -0.27
